Our source for the EC50 values is PubChem BioAssay AID1508610 (The Scripps Research Institute Molecular Screening Center, 2020).

The structures appear in SMILES notation. The source made the active and inactive calls. How the calls were made is not given here.

The assay addresses G-protein coupled receptor 151 (Homo sapiens) (UniProt Q8TDV0). Description: GPR151 activator potency, dose response, cell-based (AID 1508610). Particulars: cell-based GPR151 activation reporter.

Sequence of G-protein coupled receptor 151 (Homo sapiens) (Q8TDV0 whole entry, looked up): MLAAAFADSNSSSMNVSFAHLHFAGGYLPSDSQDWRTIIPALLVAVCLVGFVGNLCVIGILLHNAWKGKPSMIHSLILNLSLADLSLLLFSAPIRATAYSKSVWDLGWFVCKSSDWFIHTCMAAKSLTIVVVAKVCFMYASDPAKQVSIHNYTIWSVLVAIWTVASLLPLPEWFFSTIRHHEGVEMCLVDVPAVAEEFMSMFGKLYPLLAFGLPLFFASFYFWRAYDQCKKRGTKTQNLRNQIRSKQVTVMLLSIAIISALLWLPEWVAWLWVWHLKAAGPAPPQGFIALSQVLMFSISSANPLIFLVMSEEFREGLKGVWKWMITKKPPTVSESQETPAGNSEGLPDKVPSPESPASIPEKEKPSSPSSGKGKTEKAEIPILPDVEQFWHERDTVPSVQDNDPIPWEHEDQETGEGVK

Usually EC50 stands for the concentration that produces a half-maximal response. For the compound `CC(=O)c1c(C)[nH]c(C(=O)N2CCN(c3ccccc3)CC2)c1C`, the EC50 is > 28 µM (inactive).

Turning to `O=C1NC(=O)C(=Cc2cc(Br)ccc2OCc2ccccc2F)C(=O)N1`, the EC50 is > 28 µM (inactive).

As to `O=C(Nc1nc2ccccc2s1)c1ccccc1F`, the EC50 is > 31.9 µM (inactive).

On to `CCOC(=O)c1ccccc1NC(=O)CN(c1ccc(Cl)c(Cl)c1)S(C)(=O)=O`, for which the EC50 is > 28 µM (inactive).

Take `NC(=O)/C(=C\c1ccco1)NC(=O)c1ccccc1Br`: the EC50 was > 28 µM (inactive).

In the case of `O=C(Cn1[nH]c(=O)c2ccccc2c1=O)Nc1cccnc1`, the EC50 is 0.00579 µM.

Turning to `c1ccc(Oc2nc(NC3CC3)c3ncn(-c4ccsc4)c3n2)cc1`, the EC50 result was “inactive”.

For the compound `Cc1ccc(/C=N/NC(=O)Cc2cccn2C)s1`, the EC50 was > 28 µM (inactive).

For the compound `Cc1ccc(-c2c(Nc3ccc(Cl)cc3)c(=O)c2=O)cc1`, the EC50 was > 28 µM (inactive).

Regarding `CCN(CC)C(=O)CN(c1ccccc1)S(=O)(=O)c1ccc(C)cc1`, the EC50 was > 28 µM (inactive).

Turning to `Cc1ccc(CNC(=O)c2csnn2)cc1`, the EC50 was > 28 µM (inactive).

Regarding `CCCCN(CCNC(=O)Cn1ncc2c1-c1cc(C)ccc1OC2)Cc1ccco1`, the EC50 is > 28 µM (inactive).

`Cc1cc2nc(-c3cccnc3SCC(=O)NCc3ccco3)[nH]c2cc1C`: the EC50 was > 28 µM (inactive).

On to `COC(=O)c1c(NC(=O)c2cc(-c3ccc(CC(C)C)cc3)nc3ccccc23)sc(C)c1-c1ccccc1`, for which the EC50 was > 23.4 µM (inactive).

For the compound `CCN(CC)C(=O)c1cn(CCC#N)nc1-c1ccc(OC)c([N+](=O)[O-])c1`, the EC50 is > 28 µM (inactive).

Turning to `CCOc1ccc(NC(=O)C(=O)NCCN2CCN(S(=O)(=O)c3ccc4ccccc4c3)CC2)cc1`, the EC50 was > 18.8 µM (inactive).

Take `Cc1c(N=Nc2c(O)[nH]c(=S)[nH]c2=O)c(=O)n(-c2ccccc2)n1C`: the EC50 is > 28 µM (inactive).

For `CCOC(=O)COc1ccc2c(=O)c(Oc3cccc(OC)c3)coc2c1`, the EC50 was > 28 µM (inactive).

For the compound `Cc1ccccc1-n1c(=O)cc(NCCCn2ccnc2)[nH]c1=O`, the EC50 was > 28 µM (inactive).

Consider `O=C(Nc1ncc(C(O)(C(F)(F)F)C(F)(F)F)s1)c1ccccc1Cl`, for which the EC50 is > 30.5 µM (inactive).

With `N#Cc1ccsc1NC(=O)/C=C/c1ccccc1`, the EC50 is > 28.6 µM (inactive).

In the case of `O=C(O)c1ccc(-c2nc3ccccc3s2)s1`, the EC50 is > 30 µM (inactive).

Take `Clc1ccc(-c2nc(-c3ccccn3)no2)c(Cl)c1`: the EC50 was > 29.7 µM (inactive).

Consider `CC(C)N1CCC(=NNC(=O)c2ccc(C(C)(C)C)cc2)CC1`, for which the EC50 is > 28 µM (inactive).

Regarding `COc1cccc(/C=C/c2nc3ccccc3c(=O)[nH]2)c1O`, the EC50 was > 32.3 µM (inactive).

Consider `CC[C@@H](C(=O)[C@@H](C)[C@@H](O)[C@H](C)CCc1ccc(C)c(O)c1C(=O)O)[C@H]1O[C@](CC)([C@H]2CC[C@](O)(CC)[C@H](C)O2)C[C@@H]1C`, for which the EC50 is > 28 µM (inactive).

For the compound `Cc1ccn(CCC(=O)NCC2Cc3cc(-c4cnccn4)cc(Cl)c3O2)n1` (stereo not given), the EC50 was > 28 µM (inactive).

For the compound `COc1ccc(C(=O)/C=C\N2CCOCC2)cc1`, the EC50 was > 28 µM (inactive).

For the compound `Cc1cc2nc(-c3ccc[nH]c3=O)[nH]c2cc1C`, the EC50 is > 28.1 µM (inactive).

Take `CNc1nc2c(-c3ccc(Cl)cc3)nnn2c2ccccc12`: the EC50 was > 28 µM (inactive).

With `O=C(Nc1cc(Cl)ccc1Cl)c1ccccc1O`, the EC50 is > 34 µM (inactive).

`CCN1CCN(Cc2ccc(NC(=O)Nc3ccccc3C)cc2)CC1`: the EC50 is > 28 µM (inactive).

Take `C[C@H](O)[C@H]1NC(=O)[C@@H]2C[C@H](NCc3cccc(F)c3)CN2C1=O`: the EC50 is > 28 µM (inactive).

As to `COc1cccc(NC(=O)c2cc(C3CC3)[nH]n2)c1`, the EC50 is > 28 µM (inactive).

With `NC(=O)c1ccc(-c2ccc(N3CCOCC3)nc2)s1`, the EC50 is > 25.9 µM (inactive).
